According to PMC9960821, “Evaluation of Rhenium and Technetium-99m Complexes Bearing Quinazoline Derivatives as Potential EGFR Agents” (Molecules, 2023):

Experiments:
[1] = Biodistribution in healthy Swiss Albino mice after intravenous injection; format: in vivo; conditions: i.v.
Description: The pharmacokinetic profile of complexes 5b and 7b was evaluated in Swiss Albino healthy male mice at 5, 60, and 240 min post intravenous injection. Table 4 presents the results of the biodistribution studies expressed as % Injected Dose (ID)/g ± Standard Deviation (±SD). […] The high lipophilicity characterizing both complexes justifies the rapid hepatobiliary excretion, given the decreasing activity in the liver and the increasing amount of radioactivity in the intestines. Complex 5b presented faster clearance and elimination in the intestines at 60 min p.i. 34.05% of the radioactivity excreted, compared to 29.89% at 240 min p.i. of complex 7b. Radioactivity in the urine remained low in general, however, the lower logD7.4 value of complex 7b explains the relatively higher activity in the urines (7.88 ± 0.71%) as it is slightly more hydrophilic than 5b. Moreover, the low uptake in the brain indicates almost no blood-brain barrier penetration, although the complexes have favorable physicochemical characteristics.
All the biodistribution experiments were carried out in compliance with the national laws and European protocols (2010/63/EU) related to the conduct of animal experimentation. Nine healthy Swiss Albino mice (male, 30 ± 3 g), divided into three groups of three, were injected with the HPLC-purified 5b or 7b complex in saline with 10% EtOH (0.1 mL, ~75 kBq) through the tail vein. For each group, the animals were sacrificed by cardiectomy under slight ether anesthesia 5, 60, and 240 min after the injection. The organs of interest were excised, weighed, and counted in an automatic gamma counter. The bladder and excreted urine were not weighed. The stomach and intestines were not emptied of food contents prior to radioactivity measurements. The percentage of injected dose per organ (%ID/organ) was calculated by comparison of sample radioactivity to standard solutions containing 10% of the injected dose. The calculation for blood and muscle was based on measured activity, sample weight, and body composition data (considering that blood and muscle comprise 7 and 43% of body weight). The percentage of injected dose per gram (%ID/g) was calculated by dividing the %ID/organ by the weight of the organ or tissue.

[2] = Lipophilicity, shake-flask distribution coefficient; format: physicochemical; conditions: n-octanol/0.1 M phosphate buffer pH 7.4
Description: The pharmacokinetic profile of the studied compounds could be affected by their lipophilicity, expressed as the logarithm of the distribution coefficient (log Do/w). The lipophilicity of complexes 5b and 7b was determined in physiological conditions (n-octanol/0.1 M phosphate buffer pH 7.4). […] The presence of the pyridine ring in the chemical structure of complex […] increases the log D7.4 value, as expected.
The distribution coefficient of the 5b and 7b complexes was determined with the shake-flask method. The RP-HPLC isolated ^99mTc complexes (20 μL, ~75 kBq) were mixed with 2 mL of 1-octanol and 2 mL of phosphate buffer solution (PBS, 0.1 M, pH 7.4) in a centrifuge tube. The mixture was vortexed at room temperature for 2 min and centrifuged at 5000 rpm for 10 min. The radioactivity of each phase (200 μL) was counted in a gamma counter. The distribution coefficient was calculated by dividing the cpm/mL in the 1-octanol phase by those in the buffer, and the results were expressed as logD7.4. Each experiment was run in triplicate.

[3] = Stability of 99mTc complexes in reaction mixture and after isolation in PBS (RP-HPLC); format: physicochemical
Description: The stability of complexes 5b and 7b was studied in their reaction mixture and after isolation by HPLC for up to 24 h.
Stability of ^99mTc complexes in the reaction mixture: Samples of the ^99mTc complexes’ reaction mixture were stored at room temperature for up to 24 h. At 1, 6, and 24 h intervals, 100 μL of each sample was removed and analyzed by RP-HPLC.
Stability of isolated ^99mTc complexes: Purification and isolation of 5b and 7b complexes were performed by injection of the reaction mixture into RP-HPLC and isolation of the eluted compounds’ peaks, corresponding to the elution time of each complex. Followingly, 0.1 M PBS buffer solution (900 µL) was added to a vial containing 100 µL (50–120 MBq) of the isolated technetium-99m complex. The sample was incubated at 37 °C for up to 24 h and analyzed by RP-HPLC at 1, 6, and 24 h intervals.

In vivo stability (low spleen and stomach radioactivity; no oxidation to pertechnetate/TcO2) [1]: stable in vivo
Blood %Injected Dose/g ([1]; 5 min): 0.85 ± 0.23 %Injected Dose/g
Brain %Injected Dose/g ([1]; 5 min): 0.05 ± 0.02 %Injected Dose/g
Heart %Injected Dose/g ([1]; 5 min): 0.80 ± 0.12 %Injected Dose/g
Intestines %Injected Dose/g ([1]; 5 min): 9.22 ± 2.19 %Injected Dose/g
Kidneys %Injected Dose/g ([1]; 5 min): 8.49 ± 1.33 %Injected Dose/g
Liver %Injected Dose/g ([1]; 5 min): 27.68 ± 2.32 %Injected Dose/g
Lungs %Injected Dose/g ([1]; 5 min): 0.97 ± 0.20 %Injected Dose/g
Muscle %Injected Dose/g ([1]; 5 min): 0.19 ± 0.05 %Injected Dose/g
Pancreas %Injected Dose/g ([1]; 5 min): 0.63 ± 0.09 %Injected Dose/g
Spleen %Injected Dose/g ([1]; 5 min): 0.63 ± 0.09 %Injected Dose/g
Stomach %Injected Dose/g ([1]; 5 min): 0.72 ± 0.25 %Injected Dose/g
Urine % ID ([1]; 5 min): 0.09 ± 0.06 % ID
Blood %Injected Dose/g ([1]; 60 min): 0.14 ± 0.03 %Injected Dose/g
Brain %Injected Dose/g ([1]; 60 min): 0.03 ± 0.00 %Injected Dose/g
Heart %Injected Dose/g ([1]; 60 min): 0.13 ± 0.03 %Injected Dose/g
Intestines %Injected Dose/g ([1]; 60 min): 34.05 ± 2.05 %Injected Dose/g
Kidneys %Injected Dose/g ([1]; 60 min): 1.28 ± 0.17 %Injected Dose/g
Liver %Injected Dose/g ([1]; 60 min): 1.24 ± 0.24 %Injected Dose/g
Lungs %Injected Dose/g ([1]; 60 min): 0.13 ± 0.03 %Injected Dose/g
Muscle %Injected Dose/g ([1]; 60 min): 0.08 ± 0.01 %Injected Dose/g
Pancreas %Injected Dose/g ([1]; 60 min): 0.10 ± 0.03 %Injected Dose/g
Spleen %Injected Dose/g ([1]; 60 min): 0.11 ± 0.01 %Injected Dose/g
Stomach %Injected Dose/g ([1]; 60 min): 0.64 ± 0.27 %Injected Dose/g
Urine % ID ([1]; 60 min): 1.02 ± 0.17 % ID
Blood %Injected Dose/g ([1]; 240 min): 0.08 ± 0.01 %Injected Dose/g
Brain %Injected Dose/g ([1]; 240 min): 0.02 ± 0.00 %Injected Dose/g
Heart %Injected Dose/g ([1]; 240 min): 0.05 ± 0.01 %Injected Dose/g
Intestines %Injected Dose/g ([1]; 240 min): 37.28 ± 3.50 %Injected Dose/g
Kidneys %Injected Dose/g ([1]; 240 min): 0.06 ± 0.01 %Injected Dose/g
Liver %Injected Dose/g ([1]; 240 min): 0.39 ± 0.08 %Injected Dose/g
Lungs %Injected Dose/g ([1]; 240 min): 0.08 ± 0.01 %Injected Dose/g
Muscle %Injected Dose/g ([1]; 240 min): 0.07 ± 0.07 %Injected Dose/g
Pancreas %Injected Dose/g ([1]; 240 min): 0.09 ± 0.00 %Injected Dose/g
Spleen %Injected Dose/g ([1]; 240 min): 0.07 ± 0.02 %Injected Dose/g
Stomach %Injected Dose/g ([1]; 240 min): 0.60 ± 0.18 %Injected Dose/g
Urine % ID ([1]; 240 min): 1.33 ± 0.14 % ID
log D7.4 [2]: 3.27 ± 0.25
%RCP in PBS for 24 h ([3]; 0.1 M PBS, 37 °C, 24 h): 99 ± 2%
Stability in reaction mixture and after isolation by HPLC ([3]; up to 24 h, room temperature or 37 °C): No decomposition
SMILES: O=C([O-])CN(CCCCCC(=O)Nc1ccc2ncnc(Nc3cccc(Br)c3)c2c1)Cc1ccccn1.[99Tc+].[C-]#[O+].[C-]#[O+].[C-]#[O+] [Compound 5b, fac-[^99mTc(NNO)(CO)3]]
